According to patent US20220242870A1, “HETEROCYCLE-FUSED PYRIMIDINE DERIVATIVE AND USE THEREOF” (VORONOI Inc., priority 2019, published 2022):

How the values were obtained:
Assay in all cases: scanMAX kinase assay panel
Type in all cases: binding
INSR = molecular target: T1, INSR (Homo sapiens, UniProt P06213); details: read-out: control percentage (% control)
T1 construct: purchased DiscoverX scanMAX kinase assay panel
Procedure: (§1) The activities of the compounds according to the present invention to more diverse enzymes were evaluated. Specifically, it was decided that the enzyme selectivity of Example 74 selected from the compounds of Examples 1 to 129 was measured at the request of DiscoverX, and the experiment was conducted using a scanMAX™ kinase assay panel. At this time, as a drug to treat the enzyme, a solution prepared by dissolving in DMSO at a concentration of 1 μM was used, and the control percentage (% control) was determined by the method of Equation 1 below, and the results were shown in Table 2 below.
(§2) In Equation above, the positive control and negative control mean compounds showing control percentages of 0% and 100% as DMSO, respectively.

DYRK1B = molecular target: T2, DYRK1B (Homo sapiens, UniProt Q9Y463); details: read-out: control percentage (% control)
T2 construct: purchased DiscoverX scanMAX kinase assay panel
Procedure: as §1, §2

MAP3K2 = molecular target: T3, MAP3K2 (Homo sapiens, UniProt Q9Y2U5); details: read-out: control percentage (% control)
T3 construct: purchased DiscoverX scanMAX kinase assay panel
Procedure: as §1, §2

MET = molecular target: T4, MET (Homo sapiens, UniProt P08581); details: read-out: control percentage (% control)
T4 construct: purchased DiscoverX scanMAX kinase assay panel
Procedure: as §1, §2

TRKB = molecular target: T5, TRKB (Homo sapiens, UniProt Q16620); details: read-out: control percentage (% control)
T5 construct: purchased DiscoverX
Procedure: as §1, §2

STK16 = molecular target: T6, STK16 (Homo sapiens, UniProt O75716); details: read-out: control percentage (% control)
T6 construct: purchased DiscoverX
Procedure: as §1, §2

MST3 = molecular target: T7, MST3 (Homo sapiens, UniProt Q9Y6E0); details: read-out: control percentage (% control)
T7 construct: purchased DiscoverX scanMAX kinase assay panel
Procedure: as §1, §2

[1] = molecular target: T8, ABL1(H396P)-nonphosphorylated (Homo sapiens, UniProt P00519, H396P); details: read-out: control percentage (% control)
T8 construct: purchased DiscoverX (scanMAX panel, contract assay)
Procedure: as §1, §2

MARK3 = molecular target: T9, MARK3 (Homo sapiens, UniProt P27448); details: read-out: control percentage (% control)
T9 construct: purchased DiscoverX scanMAX kinase assay panel
Procedure: as §1, §2

EGFR(L858R, T790M) = molecular target: T10, EGFR(L858R, T790M) (Homo sapiens, UniProt P00533, L858R/T790M); details: read-out: control percentage (% control)
T10 construct: purchased DiscoverX scanMAX kinase assay panel
Procedure: as §1, §2

FLT3(ITD) = details: 1 μM
Procedure: as §1, §2

LTK = molecular target: T11, LTK (Homo sapiens, UniProt P29376); details: read-out: control percentage (% control)
T11 construct: purchased DiscoverX scanMAX kinase assay panel
Procedure: as §1, §2

SRPK3 = molecular target: T12, SRPK3 (Homo sapiens, UniProt Q9UPE1); details: read-out: control percentage (% control)
T12 construct: purchased DiscoverX
Procedure: as §1, §2

RIOK1 = molecular target: T13, RIOK1 (Homo sapiens, UniProt Q9BRS2); details: read-out: control percentage (% control)
T13 construct: purchased DiscoverX scanMAX kinase assay panel
Procedure: as §1, §2

PIK4CB = molecular target: T14, PIK4CB (Homo sapiens, UniProt Q9UBF8); details: read-out: control percentage (% control)
T14 construct: purchased DiscoverX scanMAX kinase assay panel
Procedure: as §1, §2

[2] = molecular target: T15, ABL1(T315I)-phosphoryIated (Homo sapiens, UniProt P00519, T315I); details: read-out: control percentage (% control)
T15 construct: purchased DiscoverX (scanMAX panel, contract assay)
Procedure: as §1, §2

TIE1 = molecular target: T16, TIE1 (Homo sapiens, UniProt P35590); details: read-out: control percentage (% control)
T16 construct: purchased DiscoverX
Procedure: as §1, §2

FGR = molecular target: T17, FGR (Homo sapiens, UniProt P09769); details: read-out: control percentage (% control)
T17 construct: purchased DiscoverX scanMAX kinase assay panel
Procedure: as §1, §2

SRPK1 = molecular target: T18, SRPK1 (Homo sapiens, UniProt Q96SB4); details: read-out: control percentage (% control)
T18 construct: purchased DiscoverX
Procedure: as §1, §2

SYK = molecular target: T19, SYK (Homo sapiens, UniProt P43405); details: read-out: control percentage (% control)
T19 construct: purchased DiscoverX
Procedure: as §1, §2

[3] = molecular target: T20, JAK3(JH1domain-catalytic) (Homo sapiens, UniProt P52333); details: read-out: control percentage (% control)
T20 construct: JAK3(JH1domain-catalytic); purchased DiscoverX scanMAX kinase assay panel
Procedure: as §1, §2

PYK2 = molecular target: T21, PYK2 (Homo sapiens, UniProt Q14289); details: read-out: control percentage (% control)
T21 construct: purchased DiscoverX scanMAX kinase assay panel
Procedure: as §1, §2

LRRK2(G2019S) = molecular target: T22, LRRK2(G2019S) (Homo sapiens, UniProt Q5S007, G2019S); details: read-out: control percentage (% control)
T22 construct: purchased DiscoverX scanMAX kinase assay panel
Procedure: as §1, §2

VRK2 = molecular target: T23, VRK2 (Homo sapiens, UniProt Q86Y07); details: read-out: control percentage (% control)
T23 construct: purchased DiscoverX
Procedure: as §1, §2

[4] = molecular target: T24, RSK4(Kin.Dom.2-C-terminal) (Homo sapiens, UniProt Q9UK32); details: read-out: control percentage (% control)
T24 construct: RSK4(Kin.Dom.2-C-terminal); purchased DiscoverX scanMAX kinase assay panel
Procedure: as §1, §2

MEK1 = molecular target: T25, MEK1 (Homo sapiens, UniProt Q02750); details: read-out: control percentage (% control)
T25 construct: purchased DiscoverX scanMAX kinase assay panel
Procedure: as §1, §2

[5] = molecular target: T26, TYK2(JH1domain-catalytic) (Homo sapiens, UniProt P29597); details: read-out: control percentage (% control)
T26 construct: TYK2(JH1domain-catalytic); purchased DiscoverX
Procedure: as §1, §2

BIKE = molecular target: T27, BIKE (Homo sapiens, UniProt Q9NSY1); details: read-out: control percentage (% control)
T27 construct: purchased DiscoverX (scanMAX panel, contract assay)
Procedure: as §1, §2

CDKL2 = molecular target: T28, CDKL2 (Homo sapiens, UniProt Q92772); details: read-out: control percentage (% control)
T28 construct: purchased DiscoverX (scanMAX panel, contract assay)
Procedure: as §1, §2

RET(V804L) = molecular target: T29, RET(V804L) (Homo sapiens, UniProt P07949, V804L); details: read-out: control percentage (% control)
T29 construct: purchased DiscoverX scanMAX kinase assay panel
Procedure: as §1, §2

MAP4K4 = molecular target: T30, MAP4K4 (Homo sapiens, UniProt O95819); details: read-out: control percentage (% control)
T30 construct: purchased DiscoverX scanMAX kinase assay panel
Procedure: as §1, §2

[6] = molecular target: T31, JAK2(JH1domain-catalytic) (Homo sapiens, UniProt O60674); details: read-out: control percentage (% control)
T31 construct: JAK2(JH1 domain-catalytic); purchased DiscoverX scanMAX kinase assay panel
Procedure: as §1, §2

[7] = molecular target: T32, RSK3(Kin.Dom.2-C-terminal) (Homo sapiens, UniProt Q15349); details: read-out: control percentage (% control)
T32 construct: RSK3(Kin.Dom.2-C-terminal); purchased DiscoverX scanMAX kinase assay panel
Procedure: as §1, §2

T25 sequence (Q02750 whole entry): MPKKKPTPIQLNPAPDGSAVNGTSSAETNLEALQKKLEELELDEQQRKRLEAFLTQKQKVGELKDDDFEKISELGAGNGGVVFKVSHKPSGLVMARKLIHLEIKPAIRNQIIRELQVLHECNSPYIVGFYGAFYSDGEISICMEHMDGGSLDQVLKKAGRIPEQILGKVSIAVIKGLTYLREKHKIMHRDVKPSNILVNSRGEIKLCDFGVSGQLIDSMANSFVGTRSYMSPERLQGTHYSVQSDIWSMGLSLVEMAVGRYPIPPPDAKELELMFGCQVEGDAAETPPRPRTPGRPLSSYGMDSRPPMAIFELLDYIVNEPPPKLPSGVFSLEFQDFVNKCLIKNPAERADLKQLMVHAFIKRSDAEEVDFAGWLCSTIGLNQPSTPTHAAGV
T32 sequence (Q15349 415-672 limits assumed): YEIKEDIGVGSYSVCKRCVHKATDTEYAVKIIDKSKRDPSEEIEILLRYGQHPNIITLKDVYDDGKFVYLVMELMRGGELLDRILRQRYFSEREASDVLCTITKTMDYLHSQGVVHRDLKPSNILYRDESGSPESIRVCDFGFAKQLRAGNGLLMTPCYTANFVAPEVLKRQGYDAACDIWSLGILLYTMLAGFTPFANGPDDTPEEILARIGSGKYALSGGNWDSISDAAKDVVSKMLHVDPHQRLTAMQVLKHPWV
T22 sequence (Q5S007 whole entry G2019S): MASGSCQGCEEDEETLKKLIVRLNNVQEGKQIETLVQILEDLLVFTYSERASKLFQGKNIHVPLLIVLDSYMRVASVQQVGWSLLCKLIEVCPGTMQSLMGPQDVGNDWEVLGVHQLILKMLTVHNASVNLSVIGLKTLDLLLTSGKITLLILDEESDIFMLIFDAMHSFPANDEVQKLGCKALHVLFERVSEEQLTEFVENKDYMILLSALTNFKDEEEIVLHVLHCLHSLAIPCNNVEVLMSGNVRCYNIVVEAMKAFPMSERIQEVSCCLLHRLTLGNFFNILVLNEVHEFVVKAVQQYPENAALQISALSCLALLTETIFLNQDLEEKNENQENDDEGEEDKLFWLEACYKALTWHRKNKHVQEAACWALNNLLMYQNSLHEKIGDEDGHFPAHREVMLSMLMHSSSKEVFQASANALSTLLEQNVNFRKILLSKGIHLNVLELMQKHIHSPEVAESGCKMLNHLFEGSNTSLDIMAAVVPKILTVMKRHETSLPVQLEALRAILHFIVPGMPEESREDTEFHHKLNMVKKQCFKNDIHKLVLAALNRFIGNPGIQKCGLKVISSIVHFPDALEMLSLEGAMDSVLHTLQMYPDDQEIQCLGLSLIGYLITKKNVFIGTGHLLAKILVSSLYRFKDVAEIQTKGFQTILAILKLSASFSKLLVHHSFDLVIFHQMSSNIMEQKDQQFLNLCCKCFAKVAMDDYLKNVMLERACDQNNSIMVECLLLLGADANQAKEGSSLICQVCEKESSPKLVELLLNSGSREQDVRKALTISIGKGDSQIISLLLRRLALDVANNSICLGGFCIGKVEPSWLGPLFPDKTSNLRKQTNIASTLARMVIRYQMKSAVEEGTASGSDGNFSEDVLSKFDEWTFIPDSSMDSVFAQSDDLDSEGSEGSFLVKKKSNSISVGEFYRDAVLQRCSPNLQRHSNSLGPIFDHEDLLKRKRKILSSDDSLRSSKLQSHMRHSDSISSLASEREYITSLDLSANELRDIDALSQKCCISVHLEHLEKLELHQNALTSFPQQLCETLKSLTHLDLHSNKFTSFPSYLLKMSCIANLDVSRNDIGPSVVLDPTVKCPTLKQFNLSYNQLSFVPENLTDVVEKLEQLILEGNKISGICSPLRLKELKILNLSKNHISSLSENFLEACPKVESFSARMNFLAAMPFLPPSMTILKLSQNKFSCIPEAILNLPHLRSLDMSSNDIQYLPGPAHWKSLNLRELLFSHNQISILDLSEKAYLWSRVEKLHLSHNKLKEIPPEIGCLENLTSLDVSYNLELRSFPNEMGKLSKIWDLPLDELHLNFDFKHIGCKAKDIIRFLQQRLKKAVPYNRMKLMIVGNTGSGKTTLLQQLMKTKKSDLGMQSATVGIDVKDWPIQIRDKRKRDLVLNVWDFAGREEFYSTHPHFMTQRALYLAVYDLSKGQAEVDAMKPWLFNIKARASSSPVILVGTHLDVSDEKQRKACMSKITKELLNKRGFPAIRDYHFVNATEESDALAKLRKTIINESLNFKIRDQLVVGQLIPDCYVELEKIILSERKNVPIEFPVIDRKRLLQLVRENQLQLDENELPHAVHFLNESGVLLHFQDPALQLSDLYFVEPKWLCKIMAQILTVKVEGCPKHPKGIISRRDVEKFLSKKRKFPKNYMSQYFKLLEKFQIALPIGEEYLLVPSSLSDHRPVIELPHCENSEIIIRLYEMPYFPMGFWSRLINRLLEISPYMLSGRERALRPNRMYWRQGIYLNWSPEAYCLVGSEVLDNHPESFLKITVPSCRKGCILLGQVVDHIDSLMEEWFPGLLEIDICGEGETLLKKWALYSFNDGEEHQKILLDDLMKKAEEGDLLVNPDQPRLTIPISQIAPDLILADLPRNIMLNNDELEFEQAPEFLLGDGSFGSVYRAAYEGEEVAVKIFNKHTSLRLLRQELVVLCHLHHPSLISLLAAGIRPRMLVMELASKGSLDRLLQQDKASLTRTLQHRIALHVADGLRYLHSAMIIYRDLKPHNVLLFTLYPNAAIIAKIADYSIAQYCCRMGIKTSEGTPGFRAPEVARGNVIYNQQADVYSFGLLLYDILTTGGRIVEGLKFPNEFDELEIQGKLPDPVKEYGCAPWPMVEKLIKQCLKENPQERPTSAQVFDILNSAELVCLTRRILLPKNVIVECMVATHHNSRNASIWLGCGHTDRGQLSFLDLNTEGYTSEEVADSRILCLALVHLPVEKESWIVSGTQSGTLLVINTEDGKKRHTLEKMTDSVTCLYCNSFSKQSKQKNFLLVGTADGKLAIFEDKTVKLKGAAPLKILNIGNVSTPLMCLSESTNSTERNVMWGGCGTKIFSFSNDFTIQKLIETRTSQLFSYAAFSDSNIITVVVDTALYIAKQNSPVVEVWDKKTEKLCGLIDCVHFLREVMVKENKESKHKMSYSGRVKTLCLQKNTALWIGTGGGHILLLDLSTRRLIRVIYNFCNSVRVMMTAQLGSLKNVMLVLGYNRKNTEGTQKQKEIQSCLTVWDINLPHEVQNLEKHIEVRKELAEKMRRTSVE
T26 sequence (P29597 897-1176 limits assumed): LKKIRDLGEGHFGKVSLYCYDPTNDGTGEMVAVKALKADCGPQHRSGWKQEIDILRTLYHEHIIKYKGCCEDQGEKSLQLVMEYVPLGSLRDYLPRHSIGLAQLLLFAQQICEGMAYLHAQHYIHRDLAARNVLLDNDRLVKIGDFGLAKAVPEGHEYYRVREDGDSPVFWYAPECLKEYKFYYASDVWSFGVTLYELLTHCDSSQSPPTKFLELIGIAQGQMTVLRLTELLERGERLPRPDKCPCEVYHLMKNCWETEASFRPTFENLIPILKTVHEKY
T2 sequence (Q9Y463 whole entry): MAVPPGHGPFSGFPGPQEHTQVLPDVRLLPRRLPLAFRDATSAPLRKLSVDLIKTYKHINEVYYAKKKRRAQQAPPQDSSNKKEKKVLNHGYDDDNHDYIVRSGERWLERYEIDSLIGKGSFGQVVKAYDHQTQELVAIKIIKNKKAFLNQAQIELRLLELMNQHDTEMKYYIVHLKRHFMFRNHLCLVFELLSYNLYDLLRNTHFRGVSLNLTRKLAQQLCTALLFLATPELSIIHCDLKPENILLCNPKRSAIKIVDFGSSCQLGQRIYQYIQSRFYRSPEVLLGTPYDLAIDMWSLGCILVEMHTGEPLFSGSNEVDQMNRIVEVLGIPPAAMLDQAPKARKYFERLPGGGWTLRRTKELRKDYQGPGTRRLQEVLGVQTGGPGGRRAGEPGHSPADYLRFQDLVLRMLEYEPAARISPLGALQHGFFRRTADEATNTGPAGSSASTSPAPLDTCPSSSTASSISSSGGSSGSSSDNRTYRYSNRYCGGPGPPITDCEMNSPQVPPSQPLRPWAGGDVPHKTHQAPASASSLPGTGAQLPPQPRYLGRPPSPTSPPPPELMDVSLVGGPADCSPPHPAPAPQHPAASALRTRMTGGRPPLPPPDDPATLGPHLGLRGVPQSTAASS
T13 sequence (Q9BRS2 whole entry): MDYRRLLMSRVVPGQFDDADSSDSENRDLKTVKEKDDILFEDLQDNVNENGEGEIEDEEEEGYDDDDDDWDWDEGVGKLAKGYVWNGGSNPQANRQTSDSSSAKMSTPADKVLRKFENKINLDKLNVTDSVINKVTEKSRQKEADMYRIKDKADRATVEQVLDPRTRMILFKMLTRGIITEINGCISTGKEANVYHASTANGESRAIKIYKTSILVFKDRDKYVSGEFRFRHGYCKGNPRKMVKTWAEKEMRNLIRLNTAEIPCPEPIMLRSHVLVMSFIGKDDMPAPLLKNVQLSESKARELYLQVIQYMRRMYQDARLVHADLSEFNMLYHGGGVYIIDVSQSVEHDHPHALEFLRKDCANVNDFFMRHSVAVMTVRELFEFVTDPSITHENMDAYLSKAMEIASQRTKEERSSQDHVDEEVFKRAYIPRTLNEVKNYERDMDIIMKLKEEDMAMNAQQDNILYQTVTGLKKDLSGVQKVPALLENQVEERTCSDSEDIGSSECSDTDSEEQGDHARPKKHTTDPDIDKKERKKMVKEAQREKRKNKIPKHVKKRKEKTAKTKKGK
T6 sequence (O75716 whole entry): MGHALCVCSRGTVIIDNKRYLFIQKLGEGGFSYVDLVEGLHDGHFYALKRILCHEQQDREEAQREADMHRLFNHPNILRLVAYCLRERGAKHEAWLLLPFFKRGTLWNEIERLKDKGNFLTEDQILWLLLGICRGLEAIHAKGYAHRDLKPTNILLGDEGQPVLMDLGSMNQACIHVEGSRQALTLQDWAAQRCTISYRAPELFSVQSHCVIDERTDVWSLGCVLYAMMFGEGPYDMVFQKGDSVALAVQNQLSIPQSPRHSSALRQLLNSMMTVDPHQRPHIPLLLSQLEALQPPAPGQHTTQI

CN1CCN(c2ccc(Nc3nc(N4OCC[C@H]4c4ccccc4)c4cc[nH]c4n3)cc2)CC1 [Example 74, (S)-N-(4-(4-methylpiperazin-1-yl)phenyl)-4-(3-phenylisoxazolidin-2-yl)-7H-pyrrolo[2,3-d]pyrimidin-2-amine]
remaining binding at 1 µM (INSR): 19% | remaining binding at 1 µM (DYRK1B): 11% | remaining binding at 1 µM (MAP3K2): 14% | remaining binding at 1 µM (MET): 4.5% | remaining binding at 1 µM (TRKB): 8.3% | remaining binding at 1 µM (STK16): 26% | remaining binding at 1 µM (MST3): 32% | remaining binding at 1 µM [1]: 18% | remaining binding at 1 µM (MARK3): 5.3% | remaining binding at 1 µM (EGFR(L858R, T790M)): 17% | control percentage (% control) (FLT3(ITD)): 0.45% | remaining binding at 1 µM (LTK): 27% | remaining binding at 1 µM (SRPK3): 13% | remaining binding at 1 µM (RIOK1): 5.5% | remaining binding at 1 µM (PIK4CB): 16% | remaining binding at 1 µM [2]: 8.4% | remaining binding at 1 µM (TIE1): 16% | remaining binding at 1 µM (FGR): 17% | remaining binding at 1 µM (SRPK1): 14% | remaining binding at 1 µM (SYK): 32% | remaining binding at 1 µM [3]: 0% | remaining binding at 1 µM (PYK2): 27% | remaining binding at 1 µM (LRRK2(G2019S)): 25% | remaining binding at 1 µM (VRK2): 33% | remaining binding at 1 µM [4]: 31% | remaining binding at 1 µM (MEK1): 16% | remaining binding at 1 µM [5]: 5.6% | remaining binding at 1 µM (BIKE): 1.8% | remaining binding at 1 µM (CDKL2): 8.2% | remaining binding at 1 µM (RET(V804L)): 5.3% | remaining binding at 1 µM (MAP4K4): 30% | remaining binding at 1 µM [6]: 0% | remaining binding at 1 µM [7]: 17%
